In US7375124B2, “Use of α-phenylthiocarboxylic and α-phenyloxycarboxylic acids with serum-glucose-lowering and serum-lipid-lowering activity” (Sigma-Tau Industrie Farmaceutiche Riunite S.p.A., priority 2002, dated 2008):
Where two headings read alike, the source gives them in different places.

Legend:
C57BL/KsJ db/db mouse [1] = settings: in vivo
Excerpt: (§1) Plasma levels of glucose, insulin, triglycerides, cholesterol, free fatty acids and urea were checked for a well-matched distribution of mice in the treatment groups.
(§2) At the start of treatment the body weights of the mice were checked and arrangements were made for monitoring water and feed consumption.
(§3) In the course of the experiment, serum glucose levels, oral glucose tolerance test (OGTT) findings, a number of lipid status parameters and weight gain were monitored.

C57BL/KsJ db/db mouse [2] = test: Antidiabetic and serum-lipid-lowering activity in the db/db mouse (Experiments I and II); settings: for Variation % (AUC glucose at OGTT) vs control / AUC glucose at OGTT: OGTT glucose 3 g/kg; for AUC glucose at OGTT / Glucose (plasma) / Fructosamine (plasma) / HDL-choles. (plasma) / Triglycerides (plasma) / Glucose / Final b.w. / Initial b.w.: mean ± S.E.; for Glucose (plasma): postabsorption (fasting 9 a.m. to 4.30 p.m.); for Glucose (plasma) / Variation % (fructosamine) vs control / Variation % (plasma glucose) vs control / Fructosamine (plasma) / HDL-choles. (plasma) / Triglycerides (plasma): 7.5 hours after last treatment; for Glucose: blood; for Final b.w. / Initial b.w.: postabsorption condition; for Variation % (initial b.w.) vs control / Initial b.w.: initial body weight
Excerpt: as §1, §2, §3

mPPARαLBD/Gal4DBD = target: T1, mPPARαLBD/Gal4DBD (Mus musculus, UniProt P23204); test: Transactivation assay mediated by mPPARαLBD/Gal4DBD in COS-7 cells (CAT reporter); format: cell-based
T1 construct: expressed in transfected cells; host or cells: COS-7 (monkey kidney fibroblasts)
T1 sequence (P23204 239-466 limits assumed): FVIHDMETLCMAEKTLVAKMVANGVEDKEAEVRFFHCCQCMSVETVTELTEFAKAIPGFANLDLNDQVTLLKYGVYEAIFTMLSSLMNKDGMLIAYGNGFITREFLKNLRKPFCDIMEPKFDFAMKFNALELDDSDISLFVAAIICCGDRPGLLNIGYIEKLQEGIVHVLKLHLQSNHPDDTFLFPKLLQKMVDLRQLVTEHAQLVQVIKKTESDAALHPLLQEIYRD
Excerpt: In this model a transactivation assay is used in which the expression vector mPPARαLBD/Gal4 DBD allows the synthesis by the transfected cell of a chimeric protein, in which the ligand binding domain (LBD) of PPARα is fused with the DNA binding domain (DBD) of the transcription factor GAL4 of yeast [Luckow B. et al., Nucleic Acids Res. 15, 5490 (1987)]. Simultaneously, a plasmid (pG5CAT) is transfected which contains 5 copies of the high-affinity binding site for GAL4 (also called UAS, upstream activating sequence), upstream of the viral promoter E1b fused with the CAT reporter gene [Moya-Camarena S. Y. et al., J. Lipid Res. 40 (8), 1426-33 (1999)]. This model eliminates interference by possible endogenous receptors.
This is due to the fact that the activation of E1b and the production of CAT will occur exclusively thanks to the interaction of GAL4 DBD with its own response element (UAS). Since the transcription factor GAL4 is not expressed in […] cells, transactivation of the reporter gene can take place only when, as a result of the interaction of a ligand with the LBD of PPARα, the chimeric protein PPARα/GAL4 recognises the UAS sequence on the plasmid pG5CAT. Together with the expression vector and the reporter vector the cells were also transfected with the plasmid pCH110 which provides the internal control for the efficiency of transfection and the normalisation of the results.
A monkey kidney fibroblast cell line (COS-7) was used [Elbrecht A. et al., J. Biol. Chem. 274 (12), 7913-22 (1999)]. The cells were co-transfected with the reporter vector, the expression plasmid coding for the fusion protein Gal4 DBD/PPARαLBD and the control vector pCH110. The cells were exposed to increasing concentrations of the study compounds and CAT activity was evaluated. Untreated cells were used as controls.
Monkey kidney fibroblasts (COS-7) were cultured according to the usual cell culture techniques, at 37° C. in a 5% v/v carbon dioxide atmosphere using as the growth medium DMEM (Dulbecco's modified Eagle's medium) modified with 3.7 g/l of sodium bicarbonate, 4 mM L-glutamine, 4.5 g/l of glucose, 1 mM sodium pyruvate and 10% v/v of foetal bovine serum, in the presence of streptomycin 100 μg/ml and penicillin 100 U/ml final.
The cells were co-transfected using the transfection reagent FuGENE6 (Roche), consisting of a defined mixture of lipids capable of complexing the DNA and of transporting it into the cells. Twenty-four hours prior to transfection the cells were plated at a density of 1.2×10^5 cells/well in 12-well plates and maintained at 37° C. in a 5% v/v CO2 atmosphere. […] Briefly, the transfection mixture containing 0.8 μg of the expression vector, 1.6 μg of the reporter vector, 0.8 μg of the control vector and 9 μl of the FuGENE6 reagent per well was added directly to the cells in the presence of culture medium devoid of serum. After 5 hours, the transfection medium was replaced by 1 ml of culture medium complete with serum and antibiotics in the presence or absence of the molecules to be tested at 3 different concentrations (2, 20 and 100 μM). Wy-14,643 (2 μM), a known ligand of PPARα, was used as the positive reference compound.
After 48 hours' incubation at 37° C. in a 5% v/v CO2 atmosphere, the cells were washed twice with 1 ml of phosphate buffer (PBS) and removed mechanically from the wells in TEN buffer (Tris[hydroxymethyl]aminomethane 10 mM pH 8, ethylenediamine-tetraacetic acid 1 mM pH 8, sodium chloride 0.1 M). After centrifuging for 3 minutes at 1000 rpm, the cells were resuspended in 65 μl of lysis buffer (Tris-HCl 0.25 M, pH 8) and then lysed thanks to three rapid freeze-thaw cycles. The insoluble cellular materials (debris) were removed by centrifuging at 15,000 rpm for 15 minutes at 4° C., and the supernatant was recovered and used for the CAT and β-galactosidase activity assays. […]

[3] = Experiment I, after 12 days' treatment, feeding state, approx. 15 hours after last treatment
[4] = Experiment I, after 12 days' treatment, postabsorption, 8 hours after last treatment
[5] = Experiment I, after 18 days' treatment
[6] = Experiment I, after 18 days' treatment, fasting 18 hours, 5 hours after last treatment
[7] = Experiment I, after 18 days' treatment, fasting 18 hours, 6 hours after last treatment
[8] = Experiment I, after 25 days' treatment
[9] = Experiment I, after 25 days' treatment, postabsorption
[10] = Experiment I, after 12 days' treatment, postabsorption (fasting 9 a.m. to 5 p.m.), 8 hours after last treatment
[11] = Experiment I, db/db mice, oral twice daily, after 12 days' treatment, feeding state, approx. 15 hours after last treatment
[12] = Experiment II, after 11 days' treatment, fasting 18 hours, 5 hours after last treatment
[13] = Experiment II, after 12 days' treatment
[14] = Experiment II, after 12 days' treatment, postabsorption

Row | Structure (SMILES) | Variation % (glucose) vs control (C57BL/KsJ db/db mouse [2]; [3]) | Variation % (glucose) vs control (C57BL/KsJ db/db mouse [2]; [4]) | Variation % (AUC glucose at OGTT) vs control (C57BL/KsJ db/db mouse [2]; [5]) [%] | AUC glucose at OGTT (C57BL/KsJ db/db mouse [2]; [6]) [a.u.] | Variation % (glucose) vs control (C57BL/KsJ db/db mouse [2]; [7]) [%] | Variation % (HDL-cholesterol) vs control (C57BL/KsJ db/db mouse [2]; [8]) | Variation % (triglycerides) vs control (C57BL/KsJ db/db mouse [2]; [8]) [%] | Glucose (plasma) (C57BL/KsJ db/db mouse [2]; [8]) | Variation % (fructosamine) vs control (C57BL/KsJ db/db mouse [2]; [9]) | Variation % (plasma glucose) vs control (C57BL/KsJ db/db mouse [2]; [9]) | Fructosamine (plasma) (C57BL/KsJ db/db mouse [2]; [9]) | HDL-choles. (plasma) (C57BL/KsJ db/db mouse [2]; [9]) | Triglycerides (plasma) (C57BL/KsJ db/db mouse [2]; [9]) [mg/dL] | Glucose (C57BL/KsJ db/db mouse [2]; [10]) [mg/dL] | Glucose (C57BL/KsJ db/db mouse [2]; [7]) | Glucose (C57BL/KsJ db/db mouse [2]; [11]) [mg/dL] | Activation of reporter gene CAT as a percentage of the reference compound (WY-14,643 2 μM = 100%) (mPPARαLBD/Gal4DBD; 2 μM) [%] | Activation of reporter gene CAT as a percentage of the reference compound (WY-14,643 2 μM = 100%) (mPPARαLBD/Gal4DBD; 20 μM) [%] | Activation of reporter gene CAT as a percentage of the reference compound (WY-14,643 2 μM = 100%) (mPPARαLBD/Gal4DBD; 100 μM) [%] | also measured
1 | CC(C)(Oc1ccc(CCNC(=O)c2ccc(Cl)cc2)cc1)C(=O)O [Bezafibrate, bezafibrate, reference compound] | +3% | +2% | −13 | 44476 ± 1827 | −13 | +14% | −7 | 536 ± 22 mg/dL | +26% | +18% | 1.01 ± 0.04Δ mM | 93.8 ± 3.8 mg/dL | 88.3 ± 12.7 | 421 ± 30 | 298 ± 21 mg/dL | 503 ± 21 | – | – | – | Final b.w. (C57BL/KsJ db/db mouse [1]): 35.2 ± 1.3 g; Initial b.w. (C57BL/KsJ db/db mouse [1]): 33.7 ± 0.7 g; Variation % (final b.w.) vs control (C57BL/KsJ db/db mouse [1]): +24%; Variation % (initial b.w.) vs control (C57BL/KsJ db/db mouse [1]): +6%
2 | COC(=O)C(C)(C)Sc1cccc(OCCc2ccc(Cl)cc2)c1 [Example 1, methyl 2-[3-[2-(4-chlorophenyl)ethoxy]phenylthio]isobutyrate] | −38% | −48% | −52 | 24527 ± 889 | −58 | +20% | −53 | 206 ± 8Δ mg/dl | −49% | −55% | 0.41 ± 0.04 mM | 98.0 ± 3.5[…] mg/dl | 45.3 ± 2.3 | 216 ± 16 | 144 ± 3Δ mg/dl | 303 ± 16 | 44.9 | 129.9 | 232.1 | Variation % (final b.w.) vs control (C57BL/KsJ db/db mouse [2]; [8]): +27%; Final b.w. (C57BL/KsJ db/db mouse [2]; Experiment I, final body weight after 25 days' treatment): 35.9 ± 0.6 g; Variation % (initial b.w.) vs control (C57BL/KsJ db/db mouse [2]; Experiment I): +2%; Initial b.w. (C57BL/KsJ db/db mouse [2]; Experiment I): 32.3 ± 0.3 g; Variation % (glucose) vs control (C57BL/KsJ db/db mouse [2]; Experiment II, after 9 days' treatment, postabsorption, 8 hours after last treatment): −36%; Variation % (AUC glucose at OGTT) vs control (C57BL/KsJ db/db mouse [2]; Experiment II, after 11 days' treatment): −40%; AUC glucose at OGTT (C57BL/KsJ db/db mouse [2]; [12]): 25929 ± 1299 a.u.; Variation % (glucose) vs control (C57BL/KsJ db/db mouse [2]; [12]): −36%; Variation % (HDL-cholesterol) vs control (C57BL/KsJ db/db mouse [2]; [13]): +43%; Variation % (final b.w.) vs control (C57BL/KsJ db/db mouse [2]; [13]): +7%; Variation % (triglycerides) vs control (C57BL/KsJ db/db mouse [2]; [13]): −48%; Glucose (plasma) (C57BL/KsJ db/db mouse [2]; [13]): 356 ± 30 mg/dL; Variation % (plasma glucose) vs control (C57BL/KsJ db/db mouse [2]; [14]): −38%; HDL-choles. (plasma) (C57BL/KsJ db/db mouse [2]; [14]): 123.7 ± 1.9 mg/dL; Triglycerides (plasma) (C57BL/KsJ db/db mouse [2]; [14]): 45.1 ± 1.4 mg/dL; Glucose (C57BL/KsJ db/db mouse [2]; Experiment II, after 9 days' treatment, postabsorption (fasting 9 a.m. to 5 p.m.), 8 hours after last treatment): 223 ± 20Δ mg/dl; Glucose (C57BL/KsJ db/db mouse [2]; [12]): 158 ± 7 mg/dL; Final b.w. (C57BL/KsJ db/db mouse [2]; Experiment II, final body weight after 12 days' treatment): 40.3 ± 0.8[…] g; Variation % (initial b.w.) vs control (C57BL/KsJ db/db mouse [2]; Experiment II): −1%; Initial b.w. (C57BL/KsJ db/db mouse [2]; Experiment II): 38.6 ± 0.4 g
3 | COC(=O)C(C)(C)Sc1cccc(OCCc2ccc(Cl)cc2Cl)c1 [Example 4, methyl 2-[3-(2-(2,4-dichlorophenyl)ethoxy)phenylthio]isobutyrate] | – | – | – | – | – | – | – | – | – | – | – | – | – | – | – | – | 113.1 | 284.9 | 421 | –
